Usually IC50 stands for the concentration needed to halve the response being measured. High values mean weaker potency, low ones greater potency.

Each structure is given as a SMILES string.

A short description of data set [1]: Cytotoxicity against VEGF-stimulated human HUVEC cells. It is filed as toxicity, cell-based.
The nature of data set [2]: Toxicity in nude mouse xenografted with human NCI-H1975 cells assessed as body weight loss at 25 mg/kg, po measured for 7 days. It is filed as organism-based. Particulars: in vivo, 168 h, time 7 day. In general terms: A xenograft is tissue or cells of one species grown in another, often human tumour cells in immunodeficient mice.
Data set [3] can be described thus: Cytotoxicity against human HUVEC cells. It is filed as toxicity, cell-based.
Data set [4] is described as follows: Cytotoxicity against human HaCaT cells. It is filed as toxicity, cell-based.
Data set [5] in a line: Cytotoxicity against human HK-2 cells. Format: toxicity, cell-based.
For data set [6], the system named is BaF3. In words: Antiproliferative activity against mouse BaF3 cells harboring EGFR C797S/Del19/T790M mutant. Format: functional, cell-based.
Data set [7] deals with BaF3. The data set can be described thus: Antiproliferative activity against mouse BaF3 cells harboring EGFR C797S/L858R/T790M mutant. It is filed as functional, cell-based.
The test system of data set [8] is BaF3. In words: Inhibition of cell proliferation in mouse BaF3 cells harboring EGFR L858R/T790M mutant incubated for 72 hrs by MTS assay. Format: functional, cell-based. Particulars: BaF3, 72 h.
Data set [9] deals with BaF3. The data set can be described thus: Inhibition of cell growth in mouse BaF3 cells harboring EGFR del19/T790M/C797S mutant incubated for 72 hrs by fluorescence based assay. Particulars: BaF3, 72 h. Format: functional.
A short description of data set [10]: Cytotoxicity against human L02 cells. It is filed as toxicity, cell-based.
The test system of data set [11] is BaF3. The data set can be described thus: Inhibition of cell growth in mouse BaF3 cells harboring EGFR L858R/T790M/C797S mutant. It is filed as functional, cell-based.
For data set [12], the system named is BaF3. In words: Inhibition of cell growth in mouse BaF3 cells harboring EGFR del19/T790M/C797S mutant. Format: functional, cell-based.
The target of data set [13] is Epidermal growth factor receptor (Homo sapiens, UniProt P00533, C797S/EX19DEL/T790M). The data set can be described thus: Inhibition of EGFR C797S/T790M/Del19 mutant (unknown origin).
Sequence of Epidermal growth factor receptor (Homo sapiens, UniProt P00533, C797S/EX19DEL/T790M) (P00533 whole entry, looked up, stated change not applied): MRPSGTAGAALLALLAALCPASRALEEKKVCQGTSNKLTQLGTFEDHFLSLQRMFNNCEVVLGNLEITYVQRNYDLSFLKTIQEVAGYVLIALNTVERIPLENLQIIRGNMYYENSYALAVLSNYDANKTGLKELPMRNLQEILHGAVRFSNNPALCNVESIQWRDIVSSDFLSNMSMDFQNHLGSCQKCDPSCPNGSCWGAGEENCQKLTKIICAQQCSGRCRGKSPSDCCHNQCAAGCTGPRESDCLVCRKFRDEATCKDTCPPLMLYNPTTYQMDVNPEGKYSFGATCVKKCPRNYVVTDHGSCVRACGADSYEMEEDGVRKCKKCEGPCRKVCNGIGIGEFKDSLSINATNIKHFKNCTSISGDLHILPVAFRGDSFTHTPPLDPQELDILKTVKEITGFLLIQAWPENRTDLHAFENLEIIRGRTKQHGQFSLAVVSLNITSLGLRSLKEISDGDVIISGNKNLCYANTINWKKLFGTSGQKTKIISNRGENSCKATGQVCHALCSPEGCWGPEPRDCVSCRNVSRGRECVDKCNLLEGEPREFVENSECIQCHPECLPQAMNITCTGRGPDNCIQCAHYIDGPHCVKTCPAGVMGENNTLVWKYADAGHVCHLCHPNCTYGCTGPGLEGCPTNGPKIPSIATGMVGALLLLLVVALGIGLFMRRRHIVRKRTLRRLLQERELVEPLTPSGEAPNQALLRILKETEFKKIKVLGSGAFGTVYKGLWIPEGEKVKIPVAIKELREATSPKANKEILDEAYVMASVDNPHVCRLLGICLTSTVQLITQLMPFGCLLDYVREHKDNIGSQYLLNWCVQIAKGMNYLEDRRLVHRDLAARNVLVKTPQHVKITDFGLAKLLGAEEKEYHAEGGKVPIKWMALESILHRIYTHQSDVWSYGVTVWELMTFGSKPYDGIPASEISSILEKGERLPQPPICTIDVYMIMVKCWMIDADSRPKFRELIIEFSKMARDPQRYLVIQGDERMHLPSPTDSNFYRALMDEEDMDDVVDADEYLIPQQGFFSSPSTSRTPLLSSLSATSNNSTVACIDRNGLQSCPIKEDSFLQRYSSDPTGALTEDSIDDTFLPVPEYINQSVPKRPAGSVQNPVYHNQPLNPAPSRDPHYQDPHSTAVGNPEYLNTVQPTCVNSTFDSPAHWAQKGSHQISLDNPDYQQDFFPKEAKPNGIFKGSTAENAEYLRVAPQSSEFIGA
Data set [14] deals with Epidermal growth factor receptor (Homo sapiens, UniProt P00533, L858R/T790M). In words: Inhibition of EGFR T790M/L858R mutant (unknown origin).
Sequence of Epidermal growth factor receptor (Homo sapiens, UniProt P00533, L858R/T790M) (P00533 25-1210 T790M/L858R limits assumed): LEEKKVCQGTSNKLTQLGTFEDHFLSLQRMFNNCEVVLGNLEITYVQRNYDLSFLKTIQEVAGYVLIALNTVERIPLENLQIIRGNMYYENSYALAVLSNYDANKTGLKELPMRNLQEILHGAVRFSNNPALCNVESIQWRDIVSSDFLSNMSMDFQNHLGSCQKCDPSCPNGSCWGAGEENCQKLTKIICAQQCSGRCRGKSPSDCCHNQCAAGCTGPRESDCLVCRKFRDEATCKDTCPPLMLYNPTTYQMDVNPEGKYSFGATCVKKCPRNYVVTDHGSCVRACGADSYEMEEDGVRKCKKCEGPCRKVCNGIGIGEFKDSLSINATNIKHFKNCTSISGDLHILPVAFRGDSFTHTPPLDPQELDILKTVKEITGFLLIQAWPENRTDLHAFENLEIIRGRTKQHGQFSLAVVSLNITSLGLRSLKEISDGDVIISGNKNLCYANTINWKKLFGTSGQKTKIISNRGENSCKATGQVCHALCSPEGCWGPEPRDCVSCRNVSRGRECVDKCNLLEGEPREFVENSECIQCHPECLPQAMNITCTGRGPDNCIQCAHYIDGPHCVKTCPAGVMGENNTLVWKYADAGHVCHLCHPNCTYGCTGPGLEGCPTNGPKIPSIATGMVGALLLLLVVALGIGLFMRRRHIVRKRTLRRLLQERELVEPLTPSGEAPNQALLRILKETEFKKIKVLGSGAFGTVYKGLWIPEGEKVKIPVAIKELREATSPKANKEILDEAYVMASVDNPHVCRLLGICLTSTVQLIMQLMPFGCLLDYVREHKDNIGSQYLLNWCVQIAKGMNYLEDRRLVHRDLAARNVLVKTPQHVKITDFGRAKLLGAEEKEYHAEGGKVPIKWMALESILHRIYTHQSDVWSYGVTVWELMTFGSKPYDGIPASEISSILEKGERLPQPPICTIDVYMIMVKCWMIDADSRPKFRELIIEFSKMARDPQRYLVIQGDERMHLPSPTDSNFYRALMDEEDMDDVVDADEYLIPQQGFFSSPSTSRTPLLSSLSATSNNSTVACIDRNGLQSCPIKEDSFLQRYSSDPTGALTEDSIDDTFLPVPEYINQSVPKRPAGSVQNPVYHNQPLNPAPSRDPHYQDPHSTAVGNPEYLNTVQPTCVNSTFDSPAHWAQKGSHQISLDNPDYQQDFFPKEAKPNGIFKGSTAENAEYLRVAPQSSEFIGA
Data set [15] addresses Epidermal growth factor receptor (Homo sapiens, UniProt P00533, C797S/L858R/T790M). The data set can be described thus: Inhibition of EGFR C797S/T790M/L858R mutant (unknown origin).
Data set [16] concerns the target Epidermal growth factor receptor (Homo sapiens, UniProt P00533). The data set can be described thus: Inhibition of wild-type EGFR (unknown origin).

Sequence of Epidermal growth factor receptor (Homo sapiens, UniProt P00533, C797S/L858R/T790M) (P00533 25-1210 T790M/C797S/L858R limits assumed): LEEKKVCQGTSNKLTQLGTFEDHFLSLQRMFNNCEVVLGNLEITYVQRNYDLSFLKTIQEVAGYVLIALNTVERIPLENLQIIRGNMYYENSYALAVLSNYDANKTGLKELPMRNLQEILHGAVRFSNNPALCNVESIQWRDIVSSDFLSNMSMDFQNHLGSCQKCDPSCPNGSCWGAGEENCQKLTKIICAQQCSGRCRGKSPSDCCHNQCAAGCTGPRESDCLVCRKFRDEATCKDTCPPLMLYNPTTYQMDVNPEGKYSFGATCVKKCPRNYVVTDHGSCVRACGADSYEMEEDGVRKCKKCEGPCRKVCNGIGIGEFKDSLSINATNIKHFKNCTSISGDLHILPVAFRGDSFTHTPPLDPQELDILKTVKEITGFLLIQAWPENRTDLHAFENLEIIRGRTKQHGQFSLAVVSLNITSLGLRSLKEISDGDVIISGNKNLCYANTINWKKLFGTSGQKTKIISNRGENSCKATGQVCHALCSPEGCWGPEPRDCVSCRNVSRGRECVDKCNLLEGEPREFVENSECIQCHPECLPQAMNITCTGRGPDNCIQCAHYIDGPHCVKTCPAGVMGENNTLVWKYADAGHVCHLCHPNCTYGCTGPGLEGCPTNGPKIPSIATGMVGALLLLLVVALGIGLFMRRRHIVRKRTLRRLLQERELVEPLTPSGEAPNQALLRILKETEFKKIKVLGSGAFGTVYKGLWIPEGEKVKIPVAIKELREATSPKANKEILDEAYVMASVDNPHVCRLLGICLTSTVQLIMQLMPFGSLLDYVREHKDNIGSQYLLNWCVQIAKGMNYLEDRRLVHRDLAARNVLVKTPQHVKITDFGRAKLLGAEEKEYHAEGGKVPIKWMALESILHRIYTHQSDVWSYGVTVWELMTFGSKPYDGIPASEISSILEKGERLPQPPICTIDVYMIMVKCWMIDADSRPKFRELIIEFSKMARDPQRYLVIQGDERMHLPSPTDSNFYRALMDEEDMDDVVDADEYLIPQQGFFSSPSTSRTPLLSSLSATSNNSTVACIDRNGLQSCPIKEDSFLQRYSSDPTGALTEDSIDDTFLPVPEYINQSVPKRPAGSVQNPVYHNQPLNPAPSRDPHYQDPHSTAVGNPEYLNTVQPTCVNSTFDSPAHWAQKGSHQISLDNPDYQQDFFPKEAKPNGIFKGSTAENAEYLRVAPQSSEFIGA
Sequence of Epidermal growth factor receptor (Homo sapiens, UniProt P00533) (P00533 whole entry): as the sequence (P00533 whole entry, looked up, stated change not applied) above

For `C=CC(=O)Nc1cc(Nc2nccc(-c3cn(C)c4ccccc34)n2)c(OC)cc1N(C)CCN(C)C` [OSIMERTINIB], the IC50 in [1] is 2400 nM; in data set [3] it was 2400 nM; in [4], 3.36 µM; in data set [5], 2140 nM. Further, the Activity result in [2] was “Toxic”.

For `CN(C)CCn1ccc2cccc(Nc3ncc(Br)c(Nc4ccccc4NS(=O)(=O)C4CC4)n3)c21`, the IC50 stood at 388 nM in data set [6] and 324 nM in data set [7].

For the compound `CN(C)C1CCN(c2ccc(Nc3ncc(Br)c(Nc4ccccc4NS(=O)(=O)C4CC4)n3)cc2)CC1`, the 50% inhibitory concentration (IC50) in [6] and in data set [7] was 4 nM each time.

As to `CN1CCCN(c2ccc(Nc3ncc(Br)c(Nc4ccccc4NS(=O)(=O)C4CC4)n3)cc2NS(C)(=O)=O)CC1`, the IC50 in data set [6] worked out at 775 nM; in data set [7] it was 791 nM.

With `CCS(=O)(=O)Nc1cc(Nc2ncc(Br)c(Nc3ccccc3NS(=O)(=O)C3CC3)n2)ccc1N1CCCN(C)CC1`, the IC50 in data set [6] was 635 nM; in data set [7], 631 nM.

Take `CN(C)C1CCN(c2ccc(Nc3ncc(Cl)c(Nc4ccccc4NS(=O)(=O)C4CC4)n3)cc2NS(C)(=O)=O)CC1`: the IC50 in data set [6] amounted to 795 nM; in [7], 844 nM.

Take `CN(C)CCn1ccc2cccc(Nc3ncc(Cl)c(Nc4ccccc4NS(=O)(=O)C4CC4)n3)c21`: the IC50 in data set [6] is 342 nM; in data set [7], 356 nM.

As to `CN(C)CCN(C)c1ccc(Nc2ncc(Br)c(Nc3ccccc3NS(=O)(=O)C3CC3)n2)cc1`, the IC50 in data set [6] stood at 13 nM; in data set [7], 15 nM.

Consider `CN(C)C1CCN(c2ccc(Nc3ncc(Br)c(Nc4ccccc4NS(=O)(=O)C4CC4)n3)cc2NS(C)(=O)=O)CC1`, for which the IC50 in data set [6] amounted to 769 nM; in data set [7] it was 785 nM.

In the case of `CN1CCCN(c2ccc(Nc3ncc(Cl)c(Nc4ccccc4NS(=O)(=O)C4CC4)n3)cc2NS(C)(=O)=O)CC1`, the values for the IC50 in data set [6] and in data set [7] were 712 nM and 723 nM, respectively.

Take `O=S(=O)(Nc1ccccc1Nc1nc(Nc2cccc3[nH]ccc23)ncc1Cl)C1CC1`: the concentration for half-maximal inhibition (IC50) was 185 nM in [6] and 196 nM in data set [7].

As for `COc1cc(N2CCCN(C)CC2)ccc1Nc1ncc(Cl)c(Nc2ccccc2NS(=O)(=O)C2CC2)n1`, the IC50 in data set [6] was found to be 79 nM; in data set [7], 82 nM.

On to `CCS(=O)(=O)Nc1cc(Nc2ncc(Br)c(Nc3ccccc3NS(=O)(=O)C3CC3)n2)ccc1N1CCC(N(C)C)CC1`, for which the IC50 is 608 nM in [6] and 613 nM in [7].

`O=C(Nc1nccs1)C(c1cc(F)ccc1O)N1Cc2ccccc2C1=O` (stereo unspecified): the IC50 in [8] is roughly 10 nM.

`Cn1ccc2c(Nc3ncc(Br)c(Nc4ccccc4NS(=O)(=O)C4CC4)n3)cccc21`: the IC50 in [6] came out at 177 nM; in data set [7] it was 183 nM.

In data set [9], `COc1cc(N2CCC(N3CCN(C)CC3)CC2)ccc1Nc1ncc(Cl)c(Nc2ccccc2NS(C)(=O)=O)n1` yielded an IC50 of 27 nM.

Consider `COc1cc(N2CCC(N(C)C)CC2)ccc1Nc1ncc(Br)c(Nc2ccccc2NS(=O)(=O)C2CC2)n1`, for which the IC50 in data set [6] stood at 75 nM; in data set [7] it was 79 nM.

Consider `O=S(=O)(Nc1ccccc1Nc1nc(Nc2cccc3[nH]cnc23)ncc1Cl)C1CC1`, for which the IC50 was found to be 191 nM in data set [6] and 175 nM in data set [7].

As for `COc1cc(N2CCC(N3CCN(C)CC3)CC2)ccc1Nc1ncc(Cl)c(Nc2ccccc2P(C)(C)=O)n1` [BRIGATINIB], the IC50 worked out at 65 nM in data set [6]; 2400 nM in [1]; 2170 nM in [3]; 71 nM in data set [7]; 5.02 µM in data set [4]; 2130 nM in [5]. For the same compound, the IC50 in data set [10] is 1400 nM.

In the case of `Cn1ccc2c(Nc3ncc(Cl)c(Nc4ccccc4NS(=O)(=O)C4CC4)n3)cccc21`, the IC50 in data set [6] was 199 nM; in data set [7], 211 nM.

`CN1CCCN(c2ccc(Nc3ncc(Br)c(Nc4ccccc4NS(=O)(=O)C4CC4)n3)cc2NS(=O)(=O)C2CC2)CC1`: the IC50 in data set [6] turned out to be 351 nM; in data set [7], 377 nM.

For `COc1cc(N2CCC(N(C)C)CC2)ccc1Nc1ncc(Cl)c(Nc2ccccc2NS(=O)(=O)C2CC2)n1`, the IC50 was 101 nM in data set [6] and 98 nM in data set [7].

As to `O=S(=O)(Nc1ccccc1Nc1nc(Nc2cccc3[nH]ccc23)ncc1Br)C1CC1`, the IC50 in data set [6] worked out at 159 nM; in data set [7] it was 124 nM.

Regarding `CN(C)CCN(C)c1ccc(Nc2ncc(Cl)c(Nc3ccccc3NS(=O)(=O)C3CC3)n2)cc1`, the IC50 amounted to 24 nM in data set [6] and 28 nM in data set [7].

Regarding `CN1CCN(c2ccc(Nc3ncc(Cl)c(Nc4ccccc4P(C)(C)=O)n3)cc2Br)CC1`, the results for the IC50 in data set [11] and in data set [12] were 3.1 nM and 2.4 nM, respectively.

On to `Cc1cc(Nc2ncc(Cl)c(Nc3ccccc3NS(=O)(=O)C3CC3)n2)ccc1N(C)CCN(C)C`, for which the results for the IC50 in data set [6] and in data set [7] were 22 nM and 29 nM, respectively.

In the case of `Cc1cc(Nc2ncc(Br)c(Nc3ccccc3NS(=O)(=O)C3CC3)n2)ccc1N1CCC(N(C)C)CC1`, the IC50 in [6] amounted to 4 nM; in data set [7] it was 3 nM.

As to `CN(C)C1CCN(c2ccc(Nc3ncc(Cl)c(Nc4ccccc4NS(=O)(=O)C4CC4)n3)cc2)CC1`, the IC50 was 11 nM in data set [6] and 15 nM in data set [7].

Regarding `CN1CCCN(c2ccc(Nc3ncc(Cl)c(Nc4ccccc4NS(=O)(=O)C4CC4)n3)cc2NS(=O)(=O)C2CC2)CC1`, the IC50 was 407 nM in [6] and 413 nM in [7].

As to `CN1CCCN(c2ccc(Nc3ncc(Cl)c(Nc4ccccc4NS(=O)(=O)C4CC4)n3)cc2)CC1`, the IC50 in [6] turned out to be 8 nM; in [7], 10 nM.

Turning to `CCS(=O)(=O)Nc1cc(Nc2ncc(Cl)c(Nc3ccccc3NS(=O)(=O)C3CC3)n2)ccc1N1CCCN(C)CC1`, the IC50 in [6] worked out at 682 nM; in data set [7], 698 nM.

On to `Cn1cnc2ccc(Nc3ncc(Br)c(Nc4ccccc4NS(=O)(=O)C4CC4)n3)cc21`, for which the IC50 in data set [6] stood at 115 nM; in data set [7], 103 nM.

For the compound `Cn1ccc2ccc(Nc3ncc(Cl)c(Nc4ccccc4NS(=O)(=O)C4CC4)n3)cc21`, the IC50 in data set [6] worked out at 274 nM; in [7], 284 nM.

For the compound `CN(C)C1CCN(c2ccc(Nc3ncc(Br)c(Nc4ccccc4NS(=O)(=O)C4CC4)n3)cc2NS(=O)(=O)C2CC2)CC1`, the IC50 in data set [6] came to 410 nM; in data set [7], 398 nM.

On to `Cc1cc(Nc2ncc(Br)c(Nc3ccccc3NS(=O)(=O)C3CC3)n2)ccc1N1CCCN(C)CC1`, for which the IC50 turned out to be 1 nM in [6]; 0.3 nM in data set [13]; 1 nM in [7]; 10.2 nM in data set [14]; 0.28 nM in [15]; 61.3 nM in data set [16].

Regarding `COc1cc(N2CCCN(C)CC2)ccc1Nc1ncc(Br)c(Nc2ccccc2NS(=O)(=O)C2CC2)n1`, the IC50 came out at 65 nM in [6] and 67 nM in [7].

With `Cc1cc(Nc2ncc(Br)c(Nc3ccccc3NS(=O)(=O)C3CC3)n2)ccc1N(C)CCN(C)C`, the IC50 in data set [6] turned out to be 15 nM; in data set [7], 17 nM.

In the case of `Cc1cc(Nc2ncc(Cl)c(Nc3ccccc3NS(=O)(=O)C3CC3)n2)ccc1N1CCCN(C)CC1`, the IC50 amounted to 8 nM in data set [6] and 4 nM in [7].

`Cn1ccc2ccc(Nc3ncc(Br)c(Nc4ccccc4NS(=O)(=O)C4CC4)n3)cc21`: the IC50 in [6] is 271 nM; in [7], 257 nM.

For the compound `Cn1cnc2ccc(Nc3ncc(Cl)c(Nc4ccccc4NS(=O)(=O)C4CC4)n3)cc21`, the IC50 came to 198 nM in data set [6] and 185 nM in data set [7].

On to `Cc1cc(Nc2ncc(Cl)c(Nc3ccccc3NS(=O)(=O)C3CC3)n2)ccc1N1CCC(N(C)C)CC1`, for which the IC50 in data set [6] came to 1 nM; in data set [13], 0.29 nM; in [7] it was 2 nM; in data set [14] it was 12.6 nM; in data set [15] it was 0.37 nM; in data set [16], 68.7 nM.

The record behind these values is ChEMBL document CHEMBL5579839, “Discovery of new cyclopropane sulfonamide derivatives as EGFR inhibitors to overcome C797S-mediated resistance and EGFR double mutation” (Eur J Med Chem, 2024).
